According to publication PMC10049354, “Anti-Inflammatory Effects and Photo- and Neuro-Protective Properties of BIO203, a New Amide Conjugate of Norbixin, in Development for the Treatment of Age-Related Macular Degeneration (AMD)” (International Journal of Molecular Sciences, 2023):

Experiments:
[1] = tested on: NF-κB; set-up: method as in PMID 34544906; details: cited from earlier work
[2] = tested on: PPAR; assay: PPAR transactivation assay (Cignal reporter, luciferase) induced by A2E; assay type: cell-based, pig; details: compound 20 μM; A2E 20 μM; RPE cells
Protocol: (§1) Transactivation assays were performed as previously described. Briefly, RPE cells were plated in DMEM 2% FCS at a density of 6 × 10^4 cells/cm^2. The next day transfections using the Cignal Reporter Assay Kits for PPAR, RXR, AP-1, and NF-κB were performed with Lipofectamine and Plus Reagent in serum-free medium. Three hours after the transfection, A2E and/or BIO203, both at 20 μM, were added to the culture medium for 24 h. Luciferase activity was measured using the Dual-Luciferase Reporter Assay System and with a luminometer (Infinite M1000 from Tecan, Mannedorf, Switzerland). At least 3 independent transfections were performed in triplicate for each condition.

[3] = tested on: RXR; assay: RXR transactivation assay induced by A2E; assay type: cell-based, pig; details: compound 20 μM; A2E 20 μM; porcine RPE cells
Protocol: as §1

[4] = tested on: AP-1; assay: AP-1 transactivation assay induced by A2E; assay type: cell-based, pig; details: compound 20 μM; A2E 20 μM
Protocol: as §1

[5] = tested on: IL-8; assay: IL-8 mRNA expression induced by A2E (quantitative RT-PCR); assay type: cell-based, pig; details: BIO203 20 mM (so in the source); A2E 20 μM; porcine RPE cells; p < 0.001
Protocol: (§2) RPE cells were obtained from pig eyes, as previously described. RPE cells were seeded on a 96-well plate at a density of 1.5 × 10^5 cells/cm^2 in DMEM 2% FCS. BIO201, BIO203, or its pure enantiomers were added in increasing concentrations to the culture medium 48 h before illumination. A2E was added to the medium at a final concentration of 30 μM, and 19 h later, blue-light illumination was performed for 50 min using a 96 blue-led device (Durand, St Clair de la Tour, France) emitting at 470 nm (1440 mcd, 8.6 mA). Just before illumination, the culture medium was replaced by a modified DMEM without any photosensitizer and with 2% FCS. Twenty-four hours after blue-light irradiation, all cell nuclei were stained with Hoechst 33342, and nuclei of dead cells with ethidium homodimer 2, fixed with paraformaldehyde (4% in PBS, 10 min) and 9 pictures per well were captured using a fluorescence microscope (Nikon TiE) equipped with a CoolSNAP HQ2 camera and driven by Metamorph Premier On-Line program. Quantification of live cells was performed using Metamorph Premier Off-Line and a homemade program by subtraction of dead cells from all cells. For cytokines mRNA analysis, RPE cells were seeded in 24-well plates and left untreated or treated with A2E or BIO203 alone or A2E plus BIO203. […]

[6] = tested on: VEGF; assay: VEGF mRNA expression induced by A2E (quantitative RT-PCR); assay type: cell-based, pig; details: BIO203 20 mM (so in the source); A2E 20 μM; porcine RPE cells; p < 0.001
Protocol: as §2

CC(=C/C=C/C(C)=C/C=C/C=C(C)/C=C/C=C(C)/C=C/C(=O)O)/C=C/C(=O)O [norbixin, 9′-cis-norbixin]
change of NF-κB transactivation induced by A2E [1]: −73%

COC1CCCN(C(=O)/C=C/C(C)=C/C=C/C(C)=C/C=C/C=C(C)/C=C/C=C(C)\C=C\C(=O)O)C1 (stereo not drawn) [BIO203]
inhibition of PPAR transactivation induced by A2E [2]: entirely inhibits
inhibition of RXR transactivation induced by A2E [3]: did not inhibit
inhibition of AP1 transactivation induced by A2E [4]: inhibited
change of IL-8 mRNA expression induced by A2E [5]: −86.8%
change of VEGF mRNA expression induced by A2E [6]: −84.8%
